What follows are compounds tested on soybean (assay: Test Example 1: foliage treatment, upland pot test). Settings: crop, active ingredient 500 g/ha, observed 18th to 23rd day, 0 = non-treated, 100 = complete kill.
Format: in vivo, Glycine max Merr.
Method in brief: (§1)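 Sow in upland field soil; grow to leaf stage (barnyardgrass 1.3–2.8, soybean 0.1–0.4, wheat 1.3–2.4, rice 1.2–2.6); spray foliage with compound in water, 500 L/ha, spreader 0.1% (v/v); assess visually at 18–23 d, 0 (as untreated) to 100 (full kill).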
In the case of `CC(C)C(c1cnccc1Cl)N(C)C(=O)Cc1ccc(F)cc1` (centres unmarked) [I-67], the “Growth controlling degree (%) Soybean” value is reported as 50%.
With `CC(C)C(c1cnccc1C(F)(F)F)N(C)C(=O)Cc1cccc(C(F)(F)F)c1` (centres unmarked) [I-40] the “Growth controlling degree (%) Soybean” value was 60%.

Each compound was assayed on crabgrass (assay: Test Example 2: soil surface treatment, upland pot test). Settings: active ingredient 500 g/ha, observed 20th to 28th day.
Format: in vivo, Digitaria sanguinalis L.
Method in brief: (§2)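 Upland soil in pots of 1/170,000 ha is sown; on day 1 after sowing the formulated compound (wettable powder or emulsifiable concentrate, predetermined a.i. amount, water volume 1,500 L/ha) is applied to the soil surface with a small sprayer. Percent control is judged by eye 20–28 days later.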
With `CC(C)C(c1cnccc1Cl)N(C)C(=O)Cc1ccc(F)cc1` (centres unmarked) [I-67] the “Growth controlling degree (%) Crabgrass” value was 95%.
In the case of `CC(C)C(c1cnccc1C(F)(F)F)N(C)C(=O)Cc1cccc(C(F)(F)F)c1` (centres unmarked) [I-40], the “Growth controlling degree (%) Crabgrass” value is reported as 100%.

Each compound was assayed on barnyardgrass (assay: Test Example 3: paddy pot test, application under submerged conditions). Settings: active ingredient 125 g/ha; submerged application at 0.5 leaf stage; visually observed 14 days after application; 0 = non-treated, 100 = complete kill.
Format: in vivo, Echinochloa crus-galli L.
Method in brief: (§3)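 Paddy soil pots; seeds sown, lightly covered; flooded 0.5–1 cm in greenhouse; wapato tubers planted day 1–2; flood raised to 3–4 cm. Submerged pipette application at 0.5 leaf / primary leaf stage. Visual score day 14, 0–100%.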
With `CC(C)C(c1cnccc1Cl)N(C)C(=O)Cc1ccc(F)cc1` (centres unmarked) [I-67] the “Growth controlling degree (%) Barnyardgrass” value was 100%.

Same assay, conditions: active ingredient 250 g/ha; submerged application at 0.5 leaf stage; visually observed 14 days after application; 0 = non-treated, 100 = complete kill
With `CC(C)C(c1cnccc1C(F)(F)F)N(C)C(=O)Cc1cccc(C(F)(F)F)c1` (centres unmarked) [I-40] the “Growth controlling degree (%) Barnyardgrass” value was 100%.

What follows are compounds tested on corn (assay: Test Example 1: foliage treatment, upland pot test). Settings: crop, active ingredient 500 g/ha, observed 18th to 23rd day, 0 = non-treated, 100 = complete kill.
Format: in vivo, Zea mays L.
Method in brief: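 Corn seeds were sown in upland field soil held in a 1/170,000 ha pot and grown to the 2.1 to 3.2 leaf stage. A wettable powder or emulsifiable concentrate of the test compound was diluted with water at 500 L/ha, given 0.1% (v/v) agricultural spreader, and sprayed onto the foliage with a small sprayer. Growth controlling degree (%) was scored visually 18th to 23rd days later, from 0 (non-treated) to 100 (complete kill).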
In the case of `CC(C)C(c1cnccc1Cl)N(C)C(=O)Cc1ccc(F)cc1` (centres unmarked) [I-67], the “Growth controlling degree (%) Corn” value is reported as 0%.
`CC(C)C(c1cnccc1C(F)(F)F)N(C)C(=O)Cc1cccc(C(F)(F)F)c1` (centres unmarked) [I-40] was tested, and the “Growth controlling degree (%) Corn” value was 90%.

Each compound was assayed on prickly sida (assay: Test Example 1: foliage treatment, upland pot test). Settings: active ingredient 500 g/ha, observed 18th to 23rd day, 0 = non-treated, 100 = complete kill.
Format: in vivo, Sida spinosa L.
In the case of `CC(C)C(c1cnccc1Cl)N(C)C(=O)Cc1ccc(F)cc1` (centres unmarked) [I-67], the “Growth controlling degree (%) Prickly sida” value is reported as 80%.
In the case of `CC(C)C(c1cnccc1C(F)(F)F)N(C)C(=O)Cc1cccc(C(F)(F)F)c1` (centres unmarked) [I-40], the “Growth controlling degree (%) Prickly sida” value is reported as 80%.

These compounds were tested on japanese ribbon wapato (assay: Test Example 3: paddy pot test, application under submerged conditions). Settings: active ingredient 125 g/ha; submerged application at primary leaf stage; visually observed 14 days after application; 0 = non-treated, 100 = complete kill.
Format: in vivo, Sagittaria pygniaea
Method in brief: as §3
In the case of `CC(C)C(c1cnccc1Cl)N(C)C(=O)Cc1ccc(F)cc1` (centres unmarked) [I-67], the “Growth controlling degree (%) Japanese ribbon wapato” value is reported as 60%.

Same assay, conditions: active ingredient 250 g/ha; submerged application at primary leaf stage; visually observed 14 days after application; 0 = non-treated, 100 = complete kill
For `CC(C)C(c1cnccc1C(F)(F)F)N(C)C(=O)Cc1cccc(C(F)(F)F)c1` (centres unmarked) [I-40], the “Growth controlling degree (%) Japanese ribbon wapato” value was 50%.

Each compound was assayed on barnyardgrass (assay: Test Example 2: soil surface treatment, upland pot test). Settings: active ingredient 500 g/ha, observed 20th to 28th day.
Format: in vivo, Echinochloa crus-galli L.
Method in brief: as §2
In the case of `CC(C)C(c1cnccc1Cl)N(C)C(=O)Cc1ccc(F)cc1` (centres unmarked) [I-67], the “Growth controlling degree (%) Barnyardgrass” value is reported as 90%.
In the case of `CC(C)C(c1cnccc1C(F)(F)F)N(C)C(=O)Cc1cccc(C(F)(F)F)c1` (centres unmarked) [I-40], the “Growth controlling degree (%) Barnyardgrass” value is reported as 95%.

What follows are compounds tested on corn in the same assay as above. Settings: active ingredient 500 g/ha, observed 20th to 28th day.
Format: in vivo, Zea mays L.
Method in brief: as §2
In the case of `CC(C)C(c1cnccc1Cl)N(C)C(=O)Cc1ccc(F)cc1` (centres unmarked) [I-67], the “Growth controlling degree (%) Corn” value is reported as 40%.
`CC(C)C(c1cnccc1C(F)(F)F)N(C)C(=O)Cc1cccc(C(F)(F)F)c1` (centres unmarked) [I-40] was tested, and the “Growth controlling degree (%) Corn” value was 50%.

The compounds below were run on rice in the same assay as above. Settings: active ingredient 500 g/ha, observed 20th to 28th day.
Format: in vivo, Oryza sativa L.
Method in brief: as §2
In the case of `CC(C)C(c1cnccc1Cl)N(C)C(=O)Cc1ccc(F)cc1` (centres unmarked) [I-67], the “Growth controlling degree (%) Rice” value is reported as 10%.
For `CC(C)C(c1cnccc1C(F)(F)F)N(C)C(=O)Cc1cccc(C(F)(F)F)c1` (centres unmarked) [I-40], the “Growth controlling degree (%) Rice” value was 20%.

What follows are compounds tested on green foxtail in the same assay as above. Settings: active ingredient 500 g/ha, observed 20th to 28th day.
Format: in vivo, Setaria viridis L.
Method in brief: as §2
In the case of `CC(C)C(c1cnccc1Cl)N(C)C(=O)Cc1ccc(F)cc1` (centres unmarked) [I-67], the “Growth controlling degree (%) Green foxtail” value is reported as 95%.
For `CC(C)C(c1cnccc1C(F)(F)F)N(C)C(=O)Cc1cccc(C(F)(F)F)c1` (centres unmarked) [I-40], the “Growth controlling degree (%) Green foxtail” value was 100%.

These compounds were tested on japanese bulrush (assay: Test Example 3: paddy pot test, application under submerged conditions). Settings: active ingredient 125 g/ha; submerged application at 0.5 leaf stage; visually observed 14 days after application; 0 = non-treated, 100 = complete kill.
Format: in vivo, Scirpus juncoides
Method in brief: as §3
`CC(C)C(c1cnccc1Cl)N(C)C(=O)Cc1ccc(F)cc1` (centres unmarked) [I-67] was tested, and the “Growth controlling degree (%) Japanese bulrush” value was 98%.

Same assay, conditions: active ingredient 250 g/ha; submerged application at 0.5 leaf stage; visually observed 14 days after application; 0 = non-treated, 100 = complete kill
With `CC(C)C(c1cnccc1C(F)(F)F)N(C)C(=O)Cc1cccc(C(F)(F)F)c1` (centres unmarked) [I-40] the “Growth controlling degree (%) Japanese bulrush” value was 50%.

Each compound was assayed on green foxtail (assay: Test Example 1: foliage treatment, upland pot test). Settings: active ingredient 500 g/ha, observed 18th to 23rd day, 0 = non-treated, 100 = complete kill.
Format: in vivo, Setaria viridis L.
For `CC(C)C(c1cnccc1Cl)N(C)C(=O)Cc1ccc(F)cc1` (centres unmarked) [I-67], the “Growth controlling degree (%) Green foxtail” value was 70%.
For `CC(C)C(c1cnccc1C(F)(F)F)N(C)C(=O)Cc1cccc(C(F)(F)F)c1` (centres unmarked) [I-40], the “Growth controlling degree (%) Green foxtail” value was 70%.

The compounds below were run on velvetleaf (assay: Test Example 1: foliage treatment, upland pot test). Settings: active ingredient 500 g/ha, observed 18th to 23rd day, 0 = non-treated, 100 = complete kill.
Format: in vivo, Abutilon theophrasti MEDIC.
With `CC(C)C(c1cnccc1Cl)N(C)C(=O)Cc1ccc(F)cc1` (centres unmarked) [I-67] the “Growth controlling degree (%) Velvetleaf” value was 60%.
For `CC(C)C(c1cnccc1C(F)(F)F)N(C)C(=O)Cc1cccc(C(F)(F)F)c1` (centres unmarked) [I-40], the “Growth controlling degree (%) Velvetleaf” value was 90%.

The compounds below were run on redroot pigweed (assay: Test Example 1: foliage treatment, upland pot test). Settings: active ingredient 500 g/ha, observed 18th to 23rd day, 0 = non-treated, 100 = complete kill.
Format: in vivo, Amaranthus retroflexus L.
For `CC(C)C(c1cnccc1Cl)N(C)C(=O)Cc1ccc(F)cc1` (centres unmarked) [I-67], the “Growth controlling degree (%) Redroot pigweed” value was 60%.
For `CC(C)C(c1cnccc1C(F)(F)F)N(C)C(=O)Cc1cccc(C(F)(F)F)c1` (centres unmarked) [I-40], the “Growth controlling degree (%) Redroot pigweed” value was 80%.

The compounds below were run on barnyardgrass (assay: Test Example 1: foliage treatment, upland pot test). Settings: active ingredient 500 g/ha, observed 18th to 23rd day, 0 = non-treated, 100 = complete kill.
Format: in vivo, Echinochloa crus-galli L.
Method in brief: as §1
`CC(C)C(c1cnccc1Cl)N(C)C(=O)Cc1ccc(F)cc1` (centres unmarked) [I-67] was tested, and the “Growth controlling degree (%) Barnyardgrass” value was 50%.
`CC(C)C(c1cnccc1C(F)(F)F)N(C)C(=O)Cc1cccc(C(F)(F)F)c1` (centres unmarked) [I-40] was tested, and the “Growth controlling degree (%) Barnyardgrass” value was 40%.

Each compound was assayed on rice (var. Nihonbare) (assay: Test Example 3: paddy pot test, transplanted rice). Settings: active ingredient 125 g/ha, applied 4th day after transplantation, visually observed 21st day after application, 0 = non-treated, 100 = complete kill.
Format: in vivo, Oryza sativa L.
Method in brief: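 Visual crop-injury rating (0 = as untreated, 100 = complete kill, %) taken 21 days post-application. Treatment: formulated compound, water-diluted, pipetted into 3–4 cm flood water at a preset active-ingredient dose, 4 days after transplanting 2-leaf Nihonbare rice 3 cm deep in puddled paddy soil.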
With `CC(C)C(c1cnccc1Cl)N(C)C(=O)Cc1ccc(F)cc1` (centres unmarked) [I-67] the “Growth controlling degree (%) Rice” value was 0%.

Same assay, conditions: active ingredient 250 g/ha, applied 4th day after transplantation, visually observed 21st day after application, 0 = non-treated, 100 = complete kill
With `CC(C)C(c1cnccc1C(F)(F)F)N(C)C(=O)Cc1cccc(C(F)(F)F)c1` (centres unmarked) [I-40] the “Growth controlling degree (%) Rice” value was 0%.

These compounds were tested on prickly sida (assay: Test Example 2: soil surface treatment, upland pot test). Settings: active ingredient 500 g/ha, observed 20th to 28th day.
Format: in vivo, Sida spinosa L.
Method in brief: as §2
With `CC(C)C(c1cnccc1Cl)N(C)C(=O)Cc1ccc(F)cc1` (centres unmarked) [I-67] the “Growth controlling degree (%) Prickly sida” value was 80%.
`CC(C)C(c1cnccc1C(F)(F)F)N(C)C(=O)Cc1cccc(C(F)(F)F)c1` (centres unmarked) [I-40] was tested, and the “Growth controlling degree (%) Prickly sida” value was 100%.

What follows are compounds tested on velvetleaf in the same assay as above. Settings: active ingredient 500 g/ha, observed 20th to 28th day.
Format: in vivo, Abutilon theophrasti MEDIC.
Method in brief: as §2
`CC(C)C(c1cnccc1Cl)N(C)C(=O)Cc1ccc(F)cc1` (centres unmarked) [I-67] was tested, and the “Growth controlling degree (%) Velvetleaf” value was 60%.
`CC(C)C(c1cnccc1C(F)(F)F)N(C)C(=O)Cc1cccc(C(F)(F)F)c1` (centres unmarked) [I-40] was tested, and the “Growth controlling degree (%) Velvetleaf” value was 70%.

Each compound was assayed on rice (assay: Test Example 1: foliage treatment, upland pot test). Settings: crop, active ingredient 500 g/ha, observed 18th to 23rd day, 0 = non-treated, 100 = complete kill.
Format: in vivo, Oryza sativa L.
Method in brief: as §1
For `CC(C)C(c1cnccc1Cl)N(C)C(=O)Cc1ccc(F)cc1` (centres unmarked) [I-67], the “Growth controlling degree (%) Rice” value was 10%.
For `CC(C)C(c1cnccc1C(F)(F)F)N(C)C(=O)Cc1cccc(C(F)(F)F)c1` (centres unmarked) [I-40], the “Growth controlling degree (%) Rice” value was 50%.

Each compound was assayed on crabgrass (assay: Test Example 1: foliage treatment, upland pot test). Settings: active ingredient 500 g/ha, observed 18th to 23rd day, 0 = non-treated, 100 = complete kill.
Format: in vivo, Digitaria sanguinalis L.
With `CC(C)C(c1cnccc1Cl)N(C)C(=O)Cc1ccc(F)cc1` (centres unmarked) [I-67] the “Growth controlling degree (%) Crabgrass” value was 90%.
In the case of `CC(C)C(c1cnccc1C(F)(F)F)N(C)C(=O)Cc1cccc(C(F)(F)F)c1` (centres unmarked) [I-40], the “Growth controlling degree (%) Crabgrass” value is reported as 95%.

These compounds were tested on soybean (assay: Test Example 2: soil surface treatment, upland pot test). Settings: active ingredient 500 g/ha, observed 20th to 28th day.
Format: in vivo, Glycine max Merr.
Method in brief: as §2
For `CC(C)C(c1cnccc1Cl)N(C)C(=O)Cc1ccc(F)cc1` (centres unmarked) [I-67], the “Growth controlling degree (%) Soyabean” value was 10%.
`CC(C)C(c1cnccc1C(F)(F)F)N(C)C(=O)Cc1cccc(C(F)(F)F)c1` (centres unmarked) [I-40] was tested, and the “Growth controlling degree (%) Soyabean” value was 30%.

What follows are compounds tested on redroot pigweed in the same assay as above. Settings: active ingredient 500 g/ha, observed 20th to 28th day.
Format: in vivo, Amaranthus retroflexus L.
Method in brief: as §2
With `CC(C)C(c1cnccc1Cl)N(C)C(=O)Cc1ccc(F)cc1` (centres unmarked) [I-67] the “Growth controlling degree (%) Redroot pigweed” value was 40%.
`CC(C)C(c1cnccc1C(F)(F)F)N(C)C(=O)Cc1cccc(C(F)(F)F)c1` (centres unmarked) [I-40] was tested, and the “Growth controlling degree (%) Redroot pigweed” value was 90%.

Source: patent US20050239656A1, “Pyridine compounds or salts thereof and herbicides containing the same” (priority 2002, published 2005)
